Earlier results on 5 compounds are cited in US8067434B2, “Compounds and methods for development of Ret modulators” (Plexxikon Inc., priority 2003, dated 2011).

SMILES strings stand for the structures.

Data set [1] concerns TT cells, with RetC634 mutant. The note with it: TT cells in RPMI medium, varying concentrations.
In the next data set the test system is Ret transformed NIH3T3. The note with it: Ret transformed NIH3T3, treatment with inhibitor.
For a further data set, the system named is Ret kinase. As to conditions: incubation with the inhibitor.
Another data set deals with Ret. The note with it: DAergic neuron cultures.

As for `O=c1c(-c2ccc(O)cc2)coc2cc(O)cc(O)c12` [genistein], the cell growth entry in data set [1] is recorded as “inhibiting cell growth”.
Consider `C=CCNC1=C2C[C@@H](C)C[C@H](OC)[C@H](O)[C@@H](C)/C=C(\C)[C@H](OC(N)=O)[C@@H](OC)/C=C\C=C(/C)C(=O)NC(=CC1=O)C2=O` [allyl-geldanamycin], for which the cell growth entry in data set [1] is listed as “inhibiting cell growth”.
As to `Cc1ccc(NC(=O)c2ccc(CN3CCN(C)CC3)cc2)cc1Nc1nccc(-c2cccnc2)n1` [STI571], the cell growth result in data set [1] is “inhibiting cell growth”.
With `CO[C@H]1[C@@H](OC)C[C@H](C)[C@@H](OC)C2=CC(=O)C=C(NC(=O)/C(C)=C/C=C\[C@H](OC)[C@@H](OC(N)=O)/C(C)=C/[C@@H]1C)C2=O` [herbimycin A], the cellular phenotype result in the data set on Ret transformed NIH3T3 is reported as “reverted the cellular phenotype to a more untransformed flat morphology”. Besides, the “intracellular Ret kinase activity” value in the data set with Ret kinase was “decreased”.
Take `C[C@]12O[C@H](C[C@]1(O)C(=O)O)n1c3ccccc3c3c4c(c5c6ccccc6n2c5c31)CNC4=O` [Compound K-252b, K-252b]: the “normal functioning of Ret in GDNF-induced differentiation” value in the data set with Ret is on record as “inhibited”.
